Laboratory results reported in patent US20080214535A1, “Amorphous Aprepitant Coprecipitates” (DR. REDDY'S LABORATORIES LTD., priority 2005, published 2008).
In brackets after ≈: the same amount, converted by molar mass. Where two headings read alike, the source gives them in different places.

Tests used:
[1] = Solubility comparison: saturated solution in water, absorbance at 210 nm; type: physicochemical; details: room temperature
Description: Solubility studies of different aprepitant powders were conducted. Sufficient aprepitant having either crystalline Form I or II, or in the form of an amorphous povidone coprecipitate, was added to a 25 ml test tube containing 10 ml of water at room temperature to get a saturated solution. The solutions were filtered and filtrate was used to obtain the absorbance at 210 nm. Absorbance was compared to standards prepared by dissolving aprepitant in methanol, then diluting aliquots with water.

[2] = cited from earlier work

Row | Solubility in water [1] | SMILES | Solubility in acetonitrile ([2]; acetonitrile) | Solubility in ethanol ([2]; ethanol) | Solubility in isopropyl acetate ([2]; isopropyl acetate) | Solubility in water ([2]; water)
1 | 0.02 mg/mL (≈ 37.4 µM) | C[C@@H](O[C@H]1OCCN(Cc2n[nH]c(=O)[nH]2)[C@H]1c1ccc(F)cc1)c1cc(C(F)(F)F)cc(C(F)(F)F)c1 [crystalline Form I, 5-[[(2R,3S)-2-[(1R)-1-[3,5-bis(trifluoromethyl)phenyl]ethoxy]-3-(4-fluorophenyl)-4-morpholinyl]methyl]-1,2-dihydro-3H-1,2,4-triazol-3-one] | – | – | – | –
2 | – | C[C@@H](O[C@H]1OCCN(Cc2n[nH]c(=O)[nH]2)[C@H]1c1ccc(F)cc1)c1cc(C(F)(F)F)cc(C(F)(F)F)c1 [Aprepitant, 5-[[(2R,3S)-2-[(1R)-1-[3,5-bis(trifluoromethyl)phenyl]ethoxy]-3-(4-fluorophenyl)-4-morpholinyl]methyl]-1,2-dihydro-3H-1,2,4-triazol-3-one] | slightly soluble | sparingly soluble | sparingly soluble | practically insoluble
3 | 0.14 mg/mL (≈ 262 µM) | C[C@@H](O[C@H]1OCCN(Cc2n[nH]c(=O)[nH]2)[C@H]1c1ccc(F)cc1)c1cc(C(F)(F)F)cc(C(F)(F)F)c1 [crystalline Form II, 5-[[(2R,3S)-2-[(1R)-1-[3,5-bis(trifluoromethyl)phenyl]ethoxy]-3-(4-fluorophenyl)-4-morpholinyl]methyl]-1,2-dihydro-3H-1,2,4-triazol-3-one] | – | – | – | –
